This is an account of results in patent publication US11370757B2, “Photocleavable nitroindoline-based crosslinkers” (priority 2017, dated 2022).

*1 amine or outer side, *2 acyl side, *3 side chain or, on linkers, in order; H or OH if unused. Where a SMILES comes first, the peptide text is derived from it. [ ]: non-standard residue; d: D form. X1 = O=C(c1cc2c(c([N+](=O)[O-])c1)N([*:1])CC2)[*:2]; Hyp = O=C(O)[C@@H]1C[C@@H](O)CN1

Data set [1] is classed as physicochemical. The procedure:
Circular Dichroism (CD) of peptide 1 and thermal stability measurements. Far-UV CD studies were conducted to study the secondary structure of peptide 1. The measurements were carried out using a 20 μM solution of the lyophilized peptide 1 in 15 mM NaCl and 10 mM Na/K buffer (pH 6.8). The sample was placed into a quartz cuvette of 1 mm path length (Jasco) and heated from 20° C.-70° C. to characterize its thermal stability. At each temperature, the sample was equilibrated for 4 min prior measurement of the spectrum. CD scans were performed at a range from 196-240 nm with three accumulations of data at each temperature to improve the S/N ratio. Each spectrum underwent 11 point Savitzky-Golay smoothing to minimize high frequency noise. The experimentally estimated ellipticities (Gobs) were converted to mean molar ellipticity [θ] using the formula: [θ]=(θobs)/ncl where l is the path length of the cuvette; c is the concentration of the peptide, and n is the number of […] in the peptide.

Data set [2] has as its system human mesenchymal stem cells. It is filed as cell-based. The text has this:
Culture and passaging of human Mesenchymal Stem Cells (MSC). Human adipose derived mesenchymal stem cells were obtained from Lonza at passage=3 (Lonza, Allendale, N.J., USA) and cultured according to manufacturer's recommendations. Certification was obtained and kept in file to ensure that the purchased human MSC (Lonza) was verified to be of the correct lineage and uncontaminated by other cell types or organisms. For the human MSC culture, a complete growth medium (Lonza) specifically MSCGM human Mesenchymal Stem Cell (HMSC) growth BulletKit™ Medium (Lonza) was used for maintaining the mesenchymal stem cells in an undifferentiated state. This medium is referred to as complete growth medium for HMSC here onwards. Prior to cell seeding, T-75 culture flasks were coated with 0.1% gelatin (Sigma Aldrich, St. Louis, Mo., USA) and incubated (37° C., 1 h). After this, the cell suspension in complete culture medium was transferred to a gelatin coated T-75 flask and incubated for 1 h (37° C., 5% CO2 and 95% RH). Prior to cell culture, the gelatin solution used for coating of the flasks was aspirated. After 70% confluency in culture was attained, cells were trypsizined and passaged for further experiments. […] Following this, cells were seeded atop this layer and cultured for 24 hours after which they were imaged using fluorescence microscopy (Zeiss Axiovision).

A short description of data set [3]: Two-photon photolysis followed by fluorescence decay under a femtosecond laser at 710 nm. The note with it: 710 nm femtosecond laser, 100 to 200 mW; film/gel on microscope slide; slope 2 = two-photon process. The data set is classed as physicochemical. The source says: Two-photon microscope. The details of the in-housed developed two-photon microscope was previously described (Acosta et al., (2014) Biomed. Opt. Express 5, 3990-4001). In summary the light source is a mode-locked Ti:Sapphire laser (Maitai H P, 690-1040 nm, 100 fs, 80 MHz, Newport, Santa Clara, Calif.). The inventors have used 710 nm light to achieve two-photon excitation of N-acyl-nitroindoline. The home-built x-y scanner (polygon, galvanometer) can achieve 30 frames/s scanning rate. The laser power at the sample site is varied by rotating a half-wave plate in front of a polarizer. The fluorescence signal from the sample are detected in three spectral channels with photomultiplier tubes (PMTs): red (570-616 nm), green (500-550 nm), and blue (417-477 nm). […]
Several spots within the sample were irradiated under the two-photon microscope using 710 nm light with varying excitation laser output powers ranging from 100 to 200 mW with increments of 25 mW. […] Therefore, as the photolysis reaction progresses, the fluorescent peptide 1 is consumed, and consequentially a decrease in average fluorescence intensity at the irradiation site is observed. For each irradiated spot, a time series of fluorescence images was recorded at every minute to track the fluorescence intensity decay throughout the photo induced reaction process (FIG. 4a-4d). […]

For the compound `NC(=O)CNC(=O)[C@@H]1CCCN1C(=O)[C@@H]1C[C@@H](O)CN1C(=O)CNC(=O)[C@@H]1CCCN1C(=O)[C@@H]1CCCN1C(=O)c1cc2c(c([N+](=O)[O-])c1)N(C(=O)CNC(=O)[C@@H]1CCCN1C(=O)[C@@H]1C[C@@H](O)CN1C(=O)CNC(=O)[C@@H]1CCCN1C(=O)[C@@H]1CCCN1C(=O)c1cc3c(c([N+](=O)[O-])c1)N(C(=O)CNC(=O)[C@@H]1CCCN1C(=O)[C@@H]1C[C@@H](O)CN1C(=O)CNC(=O)[C@@H]1CCCN1C(=O)[C@@H]1CCCN1C(=O)c1cc4c(c([N+](=O)[O-])c1)N(C(=O)CNC(=O)[C@@H]1CCCN1C(=O)[C@@H]1C[C@@H](O)CN1C(=O)CNC(=O)[C@@H]1CCCN1C(=O)[C@@H]1CCCN1C(=O)c1cc5c(c([N+](=O)[O-])c1)N(C(=O)CNC(=O)[C@@H]1CCCN1C(=O)[C@@H]1C[C@@H](O)CN1C(=O)CNC(=O)[C@@H]1CCCN1C(=O)[C@@H]1CCCN1)CC5)CC4)CC3)CC2` [peptide 1] (H-PPG[Hyp]PG[X1]PPG[Hyp]PG[X1]PPG[Hyp]PG[X1]PPG[Hyp]PG[X1]PPG[Hyp]PG-NH2), in data set [1], the “stability of the structure at physiological temperature” value is on record as “very stable”. Further, the “cytotoxicity to cultured mesenchymal stem cells” value in data set [2] is on record as “not cytotoxic”.

For `O=C(NCC(=O)N1CCc2cc(Br)cc([N+](=O)[O-])c21)OCC1c2ccccc2-c2ccccc21` [compound 13, N-Fmoc-glycyl-5-bromo-7-nitroindoline], the “slope of the regression line in the double-log plot of reaction rate vs. laser intensity” value in data set [3] is 1.996.
